According to PubChem BioAssay (NCI):
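Five compound concentrations were applied to cells in 96-well plates for 48 hours; endpoints were derived by simple linear interpolation of the resulting dose-response curve. GI50 is the concentration that inhibits growth by half. TGI marks complete inhibition of growth.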

Columns and labels:
Assay in all cases: NCI-60 cell line screen, 48 h
[1] = tested on: SK-MEL-2 melanoma
[2] = tested on: TK-10 renal
[3] = tested on: COLO 205 colon
[4] = tested on: OVCAR-3 ovarian
[5] = tested on: UACC-62 melanoma
[6] = tested on: UO-31 renal
[7] = tested on: SNB-75 CNS
[8] = tested on: SN12C renal
[9] = tested on: A549 NSCLC
[10] = tested on: ACHN renal

SMILES	GI50 [1] [µM]	TGI [1] [µM]	GI50 [2] [µM]	TGI [2] [µM]	GI50 [3] [µM]	TGI [3] [µM]	GI50 [4] [µM]	TGI [4] [µM]	TGI [5] [µM]	TGI [6] [µM]	TGI [7] [µM]	TGI [8] [µM]	TGI [9] [µM]	TGI [10] [µM]	GI50 [5] [µM]	GI50 [6] [µM]	GI50 [7] [µM]	GI50 [8] [µM]	GI50 [9] [µM]	GI50 [10] [µM]
COc1cc2c3c(n(C4CCNCC4)c(=O)c2cc1OC)-c1cc2c(cc1C3=O)OCO2	20.1	> 100	1.8	3.65	0.986	2.33	1.2	2.6												
CC1(C)N=C(N)N=C(N)N1c1cccc(OCc2cccc([N+](=O)[O-])c2)c1		> 100		> 81.8		> 100		> 73.9	> 100	> 100	> 100	> 100	> 100	> 100						
Nc1nncs1		> 5000		> 5000		> 3840		> 5000	> 3890	> 5000	> 3710	> 5000	4980	> 5000						
O=C(O)C(Br)Cc1ccc2c(c1)OCO2 (stereo not drawn)		> 100				> 100		> 100	> 100	> 100	> 100	> 100	> 100	> 100						
CSc1sc(=S)sc1SC		> 31.6				> 100		> 100	> 100	> 100	> 90	> 100	> 100							
COc1cc2c3c(c4cc(OC)c(OC)cc4c2cc1OC)[C@H](O)[C@@H]1CCCN1C3		0.234		1.55		0.154		1.18	0.395		0.252	1.42	2.56	0.3						
COc1ccc(/C=C/[N+](=O)[O-])cc1		52.7		27		> 100		8.62	39.7	41.3	> 100	56		32.4						
O=C(O)CNCc1c2ccccc2[n+]([O-])c2ccccc12		> 100		> 100		> 100		> 100	> 100	91.7	> 100	> 100	> 100	> 100						
COC(=O)c1nc2c3c(cccc3c1C(=O)OC)Nc1ccccc1-2		71.8		> 100		> 100		> 100	55.7	> 100	> 100	> 100	> 100	> 100						
COc1ccc(/C(Cl)=C(\C=O)c2ccc(Cl)c(Cl)c2)cc1OC		15		51.4		33.7		26.3	24.2	20.7	0.938	18.7		18.2						
C#C[C@@]1(O)[C@@H](CO)O[C@@H](n2cc(F)c3c(N)ncnc32)[C@@H]1O	0.446	2.87	0.736	6.56	0.263	1.3	1.11	> 100	1.47	2.48	2.32	4.74	2.64	> 100	0.331	0.47	1.03	0.302	0.377	0.24
S=C1NN=C2C(=C3CCCC4C5CCCCC5N2C34)N1 (stereo not drawn)				> 100		> 100		> 100		> 100			> 100	> 100						
C[C@H](CCC1=NCCN1)[C@H]1CC[C@H]2[C@@H]3CC[C@@H]4C[C@H](O)CC[C@]4(C)[C@H]3CC[C@]12C		21.3		23.2		3.18		38.4	4.26	31.4	22	37.3	22.4	24.2						
O=C(O)Cc1[nH]cnc1C(=O)O		> 100		> 100		> 100		> 100	> 100	> 100	> 100	> 100	> 100	> 100						
